Structures are written as SMILES.

For the test, the target named is T1, MsRv1273c/72c (Mycolicibacterium smegmatis, UniProt A0R271+A0R272).
T1 construct: gene MSMEG_5008
T1 sequence (A0R272 entry or part of it): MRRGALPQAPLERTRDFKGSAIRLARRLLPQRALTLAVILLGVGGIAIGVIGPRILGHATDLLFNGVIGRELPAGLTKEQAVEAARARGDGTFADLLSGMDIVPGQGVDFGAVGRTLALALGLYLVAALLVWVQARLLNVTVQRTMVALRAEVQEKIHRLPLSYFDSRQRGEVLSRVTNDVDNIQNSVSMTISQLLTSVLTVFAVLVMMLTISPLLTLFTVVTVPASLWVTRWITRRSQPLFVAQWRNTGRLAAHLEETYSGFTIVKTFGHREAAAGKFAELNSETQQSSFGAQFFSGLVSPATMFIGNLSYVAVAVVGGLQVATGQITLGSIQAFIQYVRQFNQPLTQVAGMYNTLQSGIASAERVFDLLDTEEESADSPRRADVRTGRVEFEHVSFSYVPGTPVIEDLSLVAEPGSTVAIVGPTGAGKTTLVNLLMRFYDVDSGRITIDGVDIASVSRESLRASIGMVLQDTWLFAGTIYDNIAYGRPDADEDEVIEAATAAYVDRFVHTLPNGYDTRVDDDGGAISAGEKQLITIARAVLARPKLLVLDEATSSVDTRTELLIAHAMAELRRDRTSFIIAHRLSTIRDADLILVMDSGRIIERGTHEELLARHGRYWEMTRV
T1 sequence (A0R271 entry or part of it): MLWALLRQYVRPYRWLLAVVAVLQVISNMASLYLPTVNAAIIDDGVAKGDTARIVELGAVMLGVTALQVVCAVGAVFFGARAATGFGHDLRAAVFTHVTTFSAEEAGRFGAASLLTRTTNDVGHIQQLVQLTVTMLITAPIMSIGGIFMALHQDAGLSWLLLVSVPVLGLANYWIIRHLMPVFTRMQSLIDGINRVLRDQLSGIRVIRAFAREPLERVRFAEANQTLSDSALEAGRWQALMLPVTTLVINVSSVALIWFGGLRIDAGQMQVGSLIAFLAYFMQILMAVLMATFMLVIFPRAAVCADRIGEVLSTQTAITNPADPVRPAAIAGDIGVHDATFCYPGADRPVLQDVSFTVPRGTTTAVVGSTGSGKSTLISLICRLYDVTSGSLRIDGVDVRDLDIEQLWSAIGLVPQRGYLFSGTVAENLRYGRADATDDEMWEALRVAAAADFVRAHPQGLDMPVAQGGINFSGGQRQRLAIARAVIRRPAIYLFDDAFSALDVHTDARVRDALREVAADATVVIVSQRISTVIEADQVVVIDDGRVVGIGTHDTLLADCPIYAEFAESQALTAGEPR
In kind it is binding.
With `Nc1ncnc2c1ncn2[C@@H]1O[C@H](COP(=O)(O)OP(=O)(O)NP(=O)(O)O)[C@@H](O)[C@H]1O` [AMPPNP], the cryo-EM structure result was “Though both NBSs bind AMPPNP, the NBDs are partially dimerized at the degenerate site”. Under `Nc1ncnc2c1ncn2[C@@H]1O[C@H](COP(=O)(O)OP(=O)(O)O)[C@@H](O)[C@H]1O` [ADP] stands “In this structure, ADP binds at the consensus site”; under `Nc1ncnc2c1ncn2[C@@H]1O[C@H](COP(=O)(O)OP(=O)(O)OP(=O)(O)O)[C@@H](O)[C@H]1O` [ATP], “the degenerate site is bound with an ATP, which has not been hydrolyzed”.
